According to article PMC7935272 (PLoS Pathogens, 2021):
Where two headings read alike, the source gives them in different places.

Legend:
MeV [1] = details: cited from earlier work; for IC50: Figure 7A source data; for EC50: experimental activity, read-out: EC50
[2] = cited from earlier work
MeV [3] = assay: Cell-based anti-MeV assays of earlier work
[4] = −log10(EC50) of literature EC50

SMILES	IC50 (MeV [1]) [µM]	EC50 (MeV [1]) [µM]	CC50 [2] [µM]	IC50 (MeV [3]; Figure 7A source data) [µM]	IC50 (MeV [3]; [4]) [µM]
COCOCC1CCCCN1S(=O)(=O)c1ccc(NC(=O)c2cc(C(F)(F)F)nn2C)cc1 (centres unmarked) [1a, S(=O)(=O)(N1C(COCOC)CCCC1)c1ccc(NC(=O)c2n(C)nc(C(F)(F)F)c2)cc1]	1.5	1.5	> 100	1.5	1.5
CCOC(=O)C=CC1CCCCN1S(=O)(=O)c1ccc(NC(=O)c2cc(C(F)(F)F)nn2C)cc1 (centres unmarked) [2g, S(=O)(=O)(N1C(C=CC(=O)OCC)CCCC1)c1ccc(NC(=O)c2n(C)nc(C(F)(F)F)c2)cc1]	6.8	6.8	> 100	6.8	6.81
CCOC(=O)CCC1CCCCN1S(=O)(=O)c1ccc(NC(=O)c2cc(C(F)(F)F)nn2C)cc1 (centres unmarked) [2i, S(=O)(=O)(N1C(CCC(=O)OCC)CCCC1)c1ccc(NC(=O)c2n(C)nc(C(F)(F)F)c2)cc1]	6.69	6.6	> 100	6.7	6.71
Cn1nc(C(F)(F)F)cc1C(=O)Nc1ccc(S(=O)(=O)N2CCCC[C@H]2CCO)cc1 [2k, S(=O)(=O)(N1[C@H](CCO)CCCC1)c1ccc(NC(=O)c2n(C)nc(C(F)(F)F)c2)cc1]	–	0.1	> 100	–	0.1
Cn1nc(C(F)(F)F)cc1C(=O)Nc1ccc(S(=O)(=O)c2ccccc2)cc1 [3a, S(=O)(=O)(c1ccc(NC(=O)c2n(C)nc(C(F)(F)F)c2)cc1)c1ccccc1]	0.09	0.09	> 100	0.09	0.0902
COc1ccccc1S(=O)(=O)c1ccc(NC(=O)c2cc(C(F)(F)F)nn2C)cc1 [3b, S(=O)(=O)(c1c(OC)cccc1)c1ccc(NC(=O)c2n(C)nc(C(F)(F)F)c2)cc1]	3.09	3	> 100	3.1	3.1
Cn1nc(C(F)(F)F)cc1C(=O)Nc1ccc(S(=O)(=O)c2ccccc2O)cc1 [3c, S(=O)(=O)(c1c(O)cccc1)c1ccc(NC(=O)c2n(C)nc(C(F)(F)F)c2)cc1]	4.5	4.5	75	4.5	4.51
CC(=O)Oc1ccccc1S(=O)(=O)c1ccc(NC(=O)c2cc(C(F)(F)F)nn2C)cc1 [3d, S(=O)(=O)(c1c(OC(=O)C)cccc1)c1ccc(NC(=O)c2n(C)nc(C(F)(F)F)c2)cc1]	4.5	4.5	> 100	4.5	4.51
CCn1nc(C(F)(F)F)cc1C(=O)Nc1ccc(S(=O)(=O)N2CCCCC2C)cc1 (centres unmarked) [9a, S(=O)(=O)(N1C(C)CCCC1)c1ccc(NC(=O)c2n(CC)nc(C(F)(F)F)c2)cc1]	0.055	0.055	30	0.055	0.0551
Cn1cc(C(F)(F)F)cc1C(=O)Nc1ccc(S(=O)(=O)N2CCCCC2)cc1 [15a, S(=O)(=O)(N1CCCCC1)c1ccc(NC(=O)c2n(C)cc(C(F)(F)F)c2)cc1]	0.014	0.014	> 300	0.014	0.014
CC1CCCCN1S(=O)(=O)c1ccc(NC(=O)c2cc(C(F)(F)F)cn2C)cc1 (centres unmarked) [15b, S(=O)(=O)(N1C(C)CCCC1)c1ccc(NC(=O)c2n(C)cc(C(F)(F)F)c2)cc1]	0.0289	0.028	> 300	0.029	0.029
CC1CCN(S(=O)(=O)c2ccc(NC(=O)c3cc(C(F)(F)F)cn3C)cc2)CC1 [15c, S(=O)(=O)(N1CCC(C)CC1)c1ccc(NC(=O)c2n(C)cc(C(F)(F)F)c2)cc1]	0.035	0.035	> 300	0.035	0.0351
CC1CCCC(C)N1S(=O)(=O)c1ccc(NC(=O)c2cc(C(F)(F)F)cn2C)cc1 (centres unmarked) [15d, S(=O)(=O)(N1C(C)CCCC1C)c1ccc(NC(=O)c2n(C)cc(C(F)(F)F)c2)cc1]	0.014	0.014	> 300	0.014	0.014
CCC1CCCCN1S(=O)(=O)c1ccc(NC(=O)c2cc(C(F)(F)F)cn2C)cc1 (centres unmarked) [15e, S(=O)(=O)(N1C(CC)CCCC1)c1ccc(NC(=O)c2n(C)cc(C(F)(F)F)c2)cc1]	0.0869	0.086	> 300	0.087	0.0871
Cn1cc(C(F)(F)F)cc1C(=O)Nc1ccc(S(=O)(=O)N2CCCCCC2)cc1 [15f, S(=O)(=O)(N1CCCCCC1)c1ccc(NC(=O)c2n(C)cc(C(F)(F)F)c2)cc1]	0.005	0.005	> 300	0.005	0.005
Cn1cc(C(F)(F)F)cc1C(=O)Nc1ccc(S(=O)(=O)N2CCCCCCC2)cc1 [15g, S(=O)(=O)(N1CCCCCCC1)c1ccc(NC(=O)c2n(C)cc(C(F)(F)F)c2)cc1]	0.045	0.045	> 300	0.045	0.0451

SMILES	IC50 (MeV [1]) [µM]	EC50 (MeV [1]) [µM]	CC50 [2] [µM]	IC50 (MeV [3]; Figure 7A source data) [µM]	IC50 (MeV [3]; [4]) [µM]
Cn1cc(C(F)(F)F)cc1C(=O)Nc1ccc(S(=O)(=O)N2CCC[C@@H]2C(=O)OC(=O)c2ccccc2)cc1 [15h, S(=O)(=O)(N1[C@@H](C(=O)OC(=O)c2ccccc2)CCC1)c1ccc(NC(=O)c2n(C)cc(C(F)(F)F)c2)cc1]	14	14	> 100	14	14
Cn1cc(C(F)(F)F)cc1C(=O)Nc1ccc(S(=O)(=O)N2CCCC2C(=O)O)cc1 (centres unmarked) [15i, S(=O)(=O)(N1C(C(=O)O)CCC1)c1ccc(NC(=O)c2n(C)cc(C(F)(F)F)c2)cc1]	23	23	> 300	23	23
Cn1cc(C(F)(F)F)cc1C(=O)Nc1ccc(S(=O)(=O)N2CCC(C(F)(F)F)CC2)cc1 [15k, S(=O)(=O)(N1CCC(C(F)(F)F)CC1)c1ccc(NC(=O)c2n(C)cc(C(F)(F)F)c2)cc1]	0.02	0.02	159	0.02	0.02
CN(C)S(=O)(=O)c1ccc(NC(=O)c2cc(C(F)(F)F)cn2C)cc1 [15m, S(=O)(=O)(N(C)C)c1ccc(NC(=O)c2n(C)cc(C(F)(F)F)c2)cc1]	6.3	6.3	> 300	6.3	6.31
CCN(CC)S(=O)(=O)c1ccc(NC(=O)c2cc(C(F)(F)F)cn2C)cc1 [15n, S(=O)(=O)(N(CC)CC)c1ccc(NC(=O)c2n(C)cc(C(F)(F)F)c2)cc1]	0.0189	0.018	> 300	0.019	0.019
CC(C)N(C(C)C)S(=O)(=O)c1ccc(NC(=O)c2cc(C(F)(F)F)cn2C)cc1 [15o, S(=O)(=O)(N(C(C)C)C(C)C)c1ccc(NC(=O)c2n(C)cc(C(F)(F)F)c2)cc1]	0.529	0.52	> 300	0.53	0.531
CCCN(CCC)S(=O)(=O)c1ccc(NC(=O)c2cc(C(F)(F)F)cn2C)cc1 [15p, S(=O)(=O)(N(CCC)CCC)c1ccc(NC(=O)c2n(C)cc(C(F)(F)F)c2)cc1]	0.19	0.19	> 300	0.19	0.19
C=CCN(CC=C)S(=O)(=O)c1ccc(NC(=O)c2cc(C(F)(F)F)cn2C)cc1 [15r, S(=O)(=O)(N(CC=C)CC=C)c1ccc(NC(=O)c2n(C)cc(C(F)(F)F)c2)cc1]	3.3	3.3	34	3.3	3.3
Cn1nc(C(F)(F)F)cc1C(=O)Nc1ccc(S(=O)(=O)N2CCCCC2CO)cc1 (centres unmarked) [28c, S(=O)(=O)(N1C(CO)CCCC1)c1ccc(NC(=O)c2n(C)nc(C(F)(F)F)c2)cc1]	0.85	0.85	–	0.85	0.851
Cn1nc(C(F)(F)F)cc1C(=O)Nc1ccc(S(=O)(=O)N2CCC[C@@H]2C(=O)O)cc1 [AS-105, S(=O)(=O)(N1[C@@H](C(=O)O)CCC1)c1ccc(NC(=O)c2n(C)nc(C(F)(F)F)c2)cc1]	23	23	> 300	23	23
Cn1nc(C(F)(F)F)cc1C(=O)Nc1ccc(S(=O)(=O)N2CCCCC2)cc1 [AS-136a, S(=O)(=O)(N1CCCCC1)c1ccc(NC(=O)c2n(C)nc(C(F)(F)F)c2)cc1]	0.014	0.014	> 300	0.014	0.014
O=C(Nc1ccc(S(=O)(=O)N2CCCC2)cc1)c1nccn1-c1ccccc1C(F)(F)F [MS-12, S(=O)(=O)(N1CCCC1)c1ccc(NC(=O)c2n(-c3c(C(F)(F)F)cccc3)ccn2)cc1]	65	65	> 300	65	65
Cn1nc(C(F)(F)F)cc1C(=O)Cc1ccc(S(=O)(=O)N2CCCC2)cc1 [MS-26, S(=O)(=O)(N1CCCC1)c1ccc(CC(=O)c2n(C)nc(C(F)(F)F)c2)cc1]	15.5	15.5	> 300	15.5	15.5
Cn1nc(C(F)(F)F)cc1C(O)Cc1ccc(S(=O)(=O)N2CCCC2)cc1 (centres unmarked) [MS-27, S(=O)(=O)(N1CCCC1)c1ccc(CC(O)c2n(C)nc(C(F)(F)F)c2)cc1]	41	41	> 300	41	41
Cn1nc(C(F)(F)F)cc1C(=O)Nc1ccc(S(=O)(=O)N2CCCC2)cc1 [compound 16677, S(=O)(=O)(N1CCCC1)c1ccc(NC(=O)c2n(C)nc(C(F)(F)F)c2)cc1]	0.239	0.23	> 300	0.24	0.24
